One series has as its target T1, XIAP (Homo sapiens, UniProt P98170).
T1 construct: endogenous in cells; host or cells: MDA-MB-231 (ATCC), soluble hypotonic lysate
Nature of the series: Caspase-3 derepression assay. It counts as biochemical. The following applies: MDA-MB-231 hypotonic lysate activated with cytochrome c and dATP; zDEVD-R110(2) substrate. As to the method: Cell pellet was washed one time by resuspending in 5 mL hypotonic lysis buffer (20 mM HEPES, pH7.5, 10 mM KCl, 1.5 mM MgCl2, 1.0 mM EDTA, 1.0 mM DTT) and recollected by centrifugation. Pellet was next resuspended in 1 volume of hypotonic lysis buffer supplemented with a complete protease inhibitor tablet (Roche) and allowed to swell on ice for 30 minutes. Cells were disrupted by approximately 50 passages through a 27 gauge needle. Lysis was monitored by light microscopy. Lysate was centrifuged at 12000×g for 10 minutes at 4° C. to remove membrane fraction, unlysed cells and debris. The soluble fraction was collected for protein concentration determination and subsequent assay analysis.
The hypotonic lysate (25 μg protein), 50 μg/mL cytochrome c and 10 mM dATP were combined in a microcentrifuge tube to a final volume of 9 μl in hypotonic lysis buffer followed by addition of test compound and incubated for 30 minutes at room temp. Following incubation 50 μl of hypotonic lysis buffer containing 5 μM of pro-fluorescent rhodamine-110(2) based caspase-3 substrate zDEVD-R110(2) was added and fluorescence intensity was monitored over time. Activation of the lysate by addition of cytochrome c and dATP results in apoptosome formation and subsequent activation of caspases-9 and -3.

In series [1] the test system is MDA-MB-231 human breast tumor cells. Nature of the series: MDA-MB-231 xenograft tumor growth delay. Type of series: in vivo, female nude mice. As to conditions: 15 mg/Kg i.p., q3dx5. The protocol: MDA-MB-231 xenograft data were generated substantially as follows. MDA-MB-231 human breast tumor cells were injected into the mammary fat pad of female nude mice and dosing initiated twelve days later at an average tumor volume of approximately 148 mm^3. No tumor burden was associated with this model based on lack of weight loss or animal morbidity in control groups. Mice were injected subcutaneously into the mammary fat pad with 1×10^7 cells suspended in 200 μl of a 1:1 HBSS: Matrigel solution; injected cells were within nine passages of the original lot. Pre-study tumor volumes were recorded beginning approximately one week prior to the estimated start date. When tumors reached approximately 150 mm^3 animals are matched by tumor volume into treatment and control groups and dosing initiated (Day 0); mice are tagged and followed individually throughout the experiment. Animals were dosed by weight (0.01 mL per gram; 10 ml/Kg).
Beginning on Day 0, animals were observed daily and weighed twice weekly using a digital scale (Ohaus SP601); data including individual and mean gram weights (Mean We±SD), mean percent weight change versus Day 0 (% vD0) and mean percent weight change versus prior measurement (% vD−x) were recorded for each group and plotted at study completion.
Beginning on Day 0, tumor dimensions were measured twice weekly by digital caliper (Fowler Ultra-Cal IV) and data including individual and mean estimated tumor volumes (Mean TV±SEM) recorded for each group; tumor volume was calculated using the formula: TV=width^2×length×0.52. Individual mice reaching the designated study endpoint (an estimated tumor volume of approximately 1 cm^3) were assigned a time to endpoint (TTE) value corresponding to that day; the tumor growth delay (TGD) study was concluded once all mice reach the study endpoint or sixty days following study initiation. At study completion, TGD and % TGD are calculated using the median TTE (MTTE) value for each treatment (T) group versus control (C) by the formulas: TGD(days)=T−C and % TGD=T−C/C×100, wherein T−C is the difference between MTTE-Treatment Group and MTTE-Control. Tumored animals not reaching the designated volume endpoint by study completion are considered long-term survivors (LTS) and assigned a TTE value corresponding to the final study day; tumor-free animals are not included in TGD calculations. A Log-rank test is used to determine statistically significant differences in overall survival experience between each treated group compared to control. Individual mice reporting a tumor volume ≤50% of the Day 0 measurement for two consecutive measurements over a seven day period were considered partial responders (PR). If the PR persisted until study completion, percent tumor regression (% TR) was determined using the formula: % TR=1−Tf/Ti×100; a mean value was calculated if multiple PR mice occurred in one group. Individual mice lacking palpable tumors (<4×4 mm^2 for two consecutive measurements over a seven day period) were classified as complete responders (CR); a CR that persisted until study completion was considered a tumor-free survivor (TFS); TFS animals are excluded from TGD calculations and statistical analysis. Statistical differences in MTTE values between control and treatment groups are compared using a Log Rank test.

T1 sequence (P98170 whole entry): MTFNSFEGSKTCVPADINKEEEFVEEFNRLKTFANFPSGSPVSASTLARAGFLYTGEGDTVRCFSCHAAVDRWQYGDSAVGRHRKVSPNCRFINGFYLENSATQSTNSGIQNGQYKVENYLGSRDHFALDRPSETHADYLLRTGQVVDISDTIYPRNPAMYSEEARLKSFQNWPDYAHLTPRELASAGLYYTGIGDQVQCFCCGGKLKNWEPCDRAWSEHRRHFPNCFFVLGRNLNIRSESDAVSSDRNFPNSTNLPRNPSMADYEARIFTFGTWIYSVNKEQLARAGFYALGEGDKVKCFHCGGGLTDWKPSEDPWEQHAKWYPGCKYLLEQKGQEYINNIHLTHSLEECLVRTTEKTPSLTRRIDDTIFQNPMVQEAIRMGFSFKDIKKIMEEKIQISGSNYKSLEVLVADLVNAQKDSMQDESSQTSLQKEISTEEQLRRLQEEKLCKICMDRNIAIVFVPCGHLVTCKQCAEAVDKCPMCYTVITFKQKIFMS

Turning to `CN[C@@H](C)C(=O)N[C@H](C(=O)N1C[C@@H](O)C[C@H]1Cc1c(-c2[nH]c3cc(F)ccc3c2C[C@@H]2C[C@H](O)CN2C(=O)[C@@H](NC(=O)[C@H](C)NC)[C@@H](C)OC)[nH]c2cc(F)ccc12)[C@@H](C)OC` [Compound 5], on XIAP, the IC50 was 0.36 nM. Besides, in series [1], the Long-term survivors is 3/10, the Partial tumor regression entry is reported as “five” and the “T−C value (tumor growth delay)” value worked out at 21 days. In addition, the “Weight loss compared to mice dosed with Compound 15 at 20 mg/Kg” value in series [1] (nude mice) is reported as “greater”.
